Experimental data reported in patent publication US6436955B1, “Crystal modification A of 8-cyano-1-cyclopropyl-7-(is,6s-2,8-diazabicyclo[4.3.0]nonan-8-yl)-6-fluoro-1,4-dihydro-4-oxo-3-quinolinecarboxylic acid” (Bayer Aktiengesellschaft, priority 1998, dated 2002).

Test: Water absorption from the atmosphere at 95% relative atmospheric humidity
Assay type: physicochemical
Details: relative atmospheric humidity of 95% (saturated solution of Na2HPO4×12 H2O with sediment in water); within one day
Source text: At a relative atmospheric humidity of 95% (established using a saturated solution of Na2HPO4×12 H2O with sediment in water), the solid obtained according to this procedure absorbs approximately 17% by weight of water within one day.
At a relative atmospheric humidity of 95% (established using a saturated solution of Na2HPO4×12 H2O with sediment in water), the solid obtained according to this procedure absorbs approximately 3% by weight of water within one day.

Row | water absorbed by the solid | SMILES
1 | approximately 17 % by weight | N#Cc1c(N2C[C@@H]3CCCN[C@@H]3C2)c(F)cc2c(=O)c(C(=O)O)cn(C3CC3)c12 [Comparative Example, 8-cyano-1-cyclopropyl-7-(1S,6S-2,8-diazabicyclo[4.3.0]nonan-8-yl)-6-fluoro-1,4-dihydro-4-oxo-3-quinolinecarboxylic acid]
2 | approximately 3 % by weight | N#Cc1c(N2C[C@@H]3CCCN[C@@H]3C2)c(F)cc2c(=O)c(C(=O)O)cn(C3CC3)c12 [Example 1, 8-cyano-1-cyclopropyl-7-(1S,6S-2,8-diazabicyclo[4.3.0]nonan-8-yl)-6-fluoro-1,4-dihydro-4-oxo-3-quinolinecarboxylic acid]
